Experiments:
VCaP cells = experiment: Cellular growth inhibition assay for VCaP cells, CellTiter-Glo; type: cell-based, human; details: 72 hours treatment, CellTiter-Glo 2.0
Method in brief: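 GI50 values come from four-parameter curve fits of luminescence data normalized to a zero baseline. Compound, in medium with 0.5% DMSO, was added one day after plating and left for 72 h before CellTiter-Glo 2.0 addition.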

T47D cells = experiment: Cellular growth inhibition assay for T47D cells, CellTiter-Glo; type: cell-based, human; details: 72 hours treatment, CellTiter-Glo 2.0 cell viability
Method in brief: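 Luminescence from CellTiter-Glo 2.0 after 72 h of compound exposure gives the viability signal. Cells grew in insulin-supplemented (0.2 units/mL) DMEM with 10% FBS and were treated one day after seeding at 0.5% DMSO. GI50 values come from four-parameter nonlinear regression.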

[1] = system: T-Rex 293 cell line SC3 cells lacking increased expression of androgen receptor protein; experiment: Cellular growth inhibition, T-Rex 293 SC3 cells without doxycycline, CellTiter-Glo; type: cell-based; details: T-Rex 293 SC3 cells not exposed to doxycycline, CellTiter-Glo 2.0
Method in brief: (§1)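 Luminescence read-out (CellTiter-Glo 2.0) after 72 h compound exposure; GI50 by four-parameter nonlinear regression, baseline set at zero luminescence. SC3 cells, a doxycycline-inducible wild-type AR clone of T-Rex 293, were cultured ±10 ng/mL doxycycline in charcoal-dextran FBS medium.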

[2] = system: T-Rex 293 cell line SC3 cells having increased expression of androgen receptor protein due to exposure to doxycycline; experiment: Cellular growth inhibition, T-Rex 293 SC3 cells with doxycycline (androgen receptor induced), CellTiter-Glo; type: cell-based; details: T-Rex 293 SC3 cells with 10 ng/mL doxycycline (increased androgen receptor expression)
Method in brief: as §1

Compound	GI50 (VCaP cells) [nM]	GI50 (T47D cells) [nM]	GI50 (VCaP cells; Homo sapiens, VCaP, 72 h) [nM]	GI50 (T47D cells; Homo sapiens, T47D, 72 h) [nM]	GI50 ([1]; 72 hours) [nM]	GI50 ([2]; 72 hours) [nM]	GI50 ([1]; 72 h) [nM]	GI50 ([2]; 72 h) [nM]
Cc1sc2c(c1C)C(c1ccc(Nc3ccc(N4CCN(c5ncc(C(=O)N[C@H]6C(C)(C)[C@H](Oc7ccc(C#N)c(Cl)c7)C6(C)C)cn5)CC4)c(C(F)(F)F)c3)cc1)=N[C@@H](C)c1nnc(C)n1-2 [Compound I-602]			> 3000	> 3000			> 3000	> 3000
Cc1sc2c(c1C)C(c1ccc(CCC(=O)N3CC4(C3)CN(c3ncc(C(=O)N[C@H]5C(C)(C)[C@H](Oc6ccc(C#N)c(Cl)c6)C5(C)C)cn3)C4)cc1)=N[C@@H](C)c1nnc(C)n1-2 [Compound I-603]			500 to 1500	500 to 1500			> 3000	< 500
Cc1sc2c(c1C)C(c1ccc(N3CC(C4CCN(c5ncc(C(=O)N[C@H]6C(C)(C)[C@H](Oc7ccc(C#N)c(Cl)c7)C6(C)C)cn5)C4)C3)cc1)=NC1(CC1)c1nnc(C)n1-2 (stereo partly shown) [Compound I-604]			< 500	500 to 1500			< 500	< 500
Cc1sc2c(c1C)C(c1ccc(N3CC(C4CCN(c5ncc(C(=O)N[C@H]6C(C)(C)[C@H](Oc7ccc(C#N)c(Cl)c7)C6(C)C)cn5)C4)C3)cc1)=NC1(CC1)c1nnc(C)n1-2 (stereo partly shown) [Compound I-605]	< 500	500 to 1500			< 500	< 500		
CC[C@@H]1N=C(c2ccc(N3CC(CC4CN(c5cnc(C(=O)N[C@H]6C(C)(C)[C@H](Oc7ccc(C#N)c(Cl)c7)C6(C)C)cn5)C4)C3)cc2)c2c(sc(C)c2C)-n2c(C)nnc21 [Compound I-607]			> 3000	< 500			> 3000	< 500
COCC[C@@H]1N=C(c2ccc(N3CC(CC4CCN(c5cnc(C(=O)N[C@H]6C(C)(C)[C@H](Oc7ccc(C#N)c(Cl)c7)C6(C)C)cn5)CC4)C3)cc2)c2c(sc(C)c2C)-n2c(C)nnc21 [Compound I-609]			500 to 1500	< 500			< 500	< 500
COCC[C@@H]1N=C(c2ccc(N3CC(CC4CN(c5cnc(C(=O)N[C@H]6C(C)(C)[C@H](Oc7ccc(C#N)c(Cl)c7)C6(C)C)cn5)C4)C3)cc2)c2c(sc(C)c2C)-n2c(C)nnc21 [Compound I-611]			< 500	1500 to 3000			< 500	< 500
Cc1sc2c(c1C)C(c1ccc(N3CC(C4CCN(c5ncc(C(=O)N[C@H]6C(C)(C)[C@H](Oc7ccc(C#N)c(Cl)c7)C6(C)C)cn5)C4)C3)cc1)=N[C@@H](C)c1nnc(C)n1-2 (stereo partly shown) [Compound I-616]			< 500	< 500			< 500	< 500
Cc1sc2c(c1C)C(c1ccc(N3CC(C4CCN(c5ncc(C(=O)N[C@H]6C(C)(C)[C@H](Oc7ccc(C#N)c(Cl)c7)C6(C)C)cn5)C4)C3)cc1)=N[C@@H](C)c1nnc(C)n1-2 (stereo partly shown) [Compound I-617]	< 500	< 500			< 500	< 500		
Cc1sc2c(c1C)C(c1ccc(N3CC(CC4CCN(c5ncc(C(=O)N(C)[C@H]6C(C)(C)[C@H](Oc7ccc(C#N)c(Cl)c7)C6(C)C)cn5)CC4)C3)cc1)=N[C@@H](C)c1nnc(C)n1-2 [Compound I-618]			1500 to 3000	< 500			> 3000	< 500
Cc1sc2c(c1C)C(c1ccc(N3CC(CC4CN(c5ccc(C(=O)N[C@H]6C(C)(C)[C@H](Oc7ccc(C#N)c(Cl)c7)C6(C)C)nc5)C4)C3)cc1)=N[C@@H](Cc1ncco1)c1nnc(C)n1-2 [Compound I-621]			< 500	< 500			< 500	< 500
Cc1sc2c(c1C)C(c1ccc(N3C4CCC3CN(c3ncc(C(=O)N[C@H]5C(C)(C)[C@H](Oc6ccc(C#N)c(Cl)c6)C5(C)C)cn3)C4)cc1)=N[C@@H](Cc1ncco1)c1nnc(C)n1-2 [Compound I-635]			< 500	< 500	< 500	< 500		
Cc1sc2c(c1C)C(c1ccc(NCC3CCCCN3c3ncc(C(=O)N[C@H]4C(C)(C)[C@H](Oc5ccc(C#N)c(Cl)c5)C4(C)C)cn3)cc1)=NC(Cc1ncco1)c1nnc(C)n1-2 (stereo partly shown) [Compound I-638]			< 500	< 500			< 500	< 500
Cc1sc2c(c1C)C(c1ccc(NCC3CCN(c4ncc(C(=O)N[C@H]5C(C)(C)[C@H](Oc6ccc(C#N)c(Cl)c6)C5(C)C)cn4)C3)cc1)=NC(Cc1ncco1)c1nnc(C)n1-2 (stereo partly shown) [Compound I-639]			< 500	< 500			< 500	< 500

Second part, led by results:

GI50 (VCaP cells) [nM]	GI50 (T47D cells) [nM]	GI50 (VCaP cells; Homo sapiens, VCaP, 72 h) [nM]	GI50 (T47D cells; Homo sapiens, T47D, 72 h) [nM]	Compound	GI50 ([1]; 72 hours) [nM]	GI50 ([2]; 72 hours) [nM]	GI50 ([1]; 72 h) [nM]	GI50 ([2]; 72 h) [nM]
< 500	> 3000			Cc1sc2c(c1C)C(c1ccc(OC3CC4(CCN(c5ncc(C(=O)N[C@H]6C(C)(C)[C@H](Oc7ccc(C#N)c(Cl)c7)C6(C)C)cn5)CC4)C3)cc1)=NC(C(F)(F)F)c1nnc(C)n1-2 (stereo partly shown) [Compound I-601]	> 3000	> 3000		
		< 500	> 3000	CC[C@@H]1N=C(c2ccc(OC3CC4(C3)CC3(CCN(c5ncc(C(=O)N[C@H]6C(C)(C)[C@H](Oc7ccc(C#N)c(Cl)c7)C6(C)C)cn5)CC3)C4)cc2)c2c(sc(C)c2C)-n2c(C)nnc21 [Compound I-606]			> 3000	< 500
		< 500	500 to 1500	COCC[C@@H]1N=C(c2ccc(N3CC(CC4CCN(c5ncc(C(=O)N[C@H]6C(C)(C)[C@H](Oc7ccc(C#N)c(Cl)c7)C6(C)C)cn5)CC4)C3)cc2)c2c(sc(C)c2C)-n2c(C)nnc21 [Compound I-608]			> 3000	< 500
		< 500	1500 to 3000	COCC[C@@H]1N=C(c2ccc(N3CC(C4CCN(c5ncc(C(=O)N[C@H]6C(C)(C)[C@H](Oc7ccc(C#N)c(Cl)c7)C6(C)C)cn5)CC4)C3)cc2)c2c(sc(C)c2C)-n2c(C)nnc21 [Compound I-610]			> 3000	< 500
	1500 to 3000	500 to 1500		CC[C@@H]1N=C(c2ccc(CC3CCC4(C3)CN(c3ncc(C(=O)N[C@H]5C(C)(C)[C@H](Oc6ccc(C#N)c(Cl)c6)C5(C)C)cn3)CCO4)cc2)c2c(sc(C)c2C)-n2c(C)nnc21 (stereo partly shown) [Compound I-612]	500 to 1500			< 500
< 500	500 to 1500			CC[C@@H]1N=C(c2ccc(CC3CCC4(C3)CN(c3ncc(C(=O)N[C@H]5C(C)(C)[C@H](Oc6ccc(C#N)c(Cl)c6)C5(C)C)cn3)CCO4)cc2)c2c(sc(C)c2C)-n2c(C)nnc21 (stereo partly shown) [Compound I-613]	> 3000	< 500		
< 500	< 500			CC[C@@H]1N=C(c2ccc(CC3CCC4(C3)CN(c3ncc(C(=O)N[C@H]5C(C)(C)[C@H](Oc6ccc(C#N)c(Cl)c6)C5(C)C)cn3)CCO4)cc2)c2c(sc(C)c2C)-n2c(C)nnc21 (stereo partly shown) [Compound I-614]	> 3000	< 500		
< 500	> 3000			CC[C@@H]1N=C(c2ccc(CC3CCC4(C3)CN(c3ncc(C(=O)N[C@H]5C(C)(C)[C@H](Oc6ccc(C#N)c(Cl)c6)C5(C)C)cn3)CCO4)cc2)c2c(sc(C)c2C)-n2c(C)nnc21 (stereo partly shown) [Compound I-615]	< 500	< 500		
		< 500	< 500	Cc1sc2c(c1C)C(c1ccc(CC3CCC4(C3)CN(c3ncc(C(=O)N[C@H]5C(C)(C)[C@H](Oc6ccc(C#N)c(Cl)c6)C5(C)C)cn3)CCO4)cc1)=N[C@@H](C)c1nnc(C)n1-2 (stereo partly shown) [Compound I-619]			500 to 1500	< 500
< 500	500 to 1500			Cc1sc2c(c1C)C(c1ccc(CC3CCC4(C3)CN(c3ncc(C(=O)N[C@H]5C(C)(C)[C@H](Oc6ccc(C#N)c(Cl)c6)C5(C)C)cn3)CCO4)cc1)=N[C@@H](C)c1nnc(C)n1-2 (stereo partly shown) [Compound I-620]	< 500	< 500		
		500 to 1500	< 500	Cc1sc2c(c1C)C(c1ccc(NCC3(F)CCN(c4ncc(C(=O)N[C@H]5C(C)(C)[C@H](Oc6ccc(C#N)c(Cl)c6)C5(C)C)cn4)CC3)cc1)=NC(Cc1ncco1)c1nnc(C)n1-2 (stereo partly shown) [Compound I-634]			> 3000	< 500
		< 500	< 500	Cc1sc2c(c1C)C(c1ccc(NCC3CCN(c4ncc(C(=O)N[C@H]5C(C)(C)[C@H](Oc6ccc(C#N)c(Cl)c6)C5(C)C)cn4)CC3)cc1)=N[C@@H](Cc1ncco1)c1nnc(C)n1-2 [Compound I-636]			< 500	< 500
		< 500	< 500	Cc1sc2c(c1C)C(c1ccc(N3CCCC4(CCN(c5ncc(C(=O)N[C@H]6C(C)(C)[C@H](Oc7ccc(C#N)c(Cl)c7)C6(C)C)cn5)CC4)C3)cc1)=NC(Cc1ncco1)c1nnc(C)n1-2 (stereo partly shown) [Compound I-637]			> 3000	< 500
		< 500	< 500	Cc1sc2c(c1C)C(c1ccc(NC3CCCN(c4ncc(C(=O)N[C@H]5C(C)(C)[C@H](Oc6ccc(C#N)c(Cl)c6)C5(C)C)cn4)CC3)cc1)=NC(Cc1ncco1)c1nnc(C)n1-2 (stereo partly shown) [Compound I-640]			500 to 1500	< 500

From patent publication US20260062422A1 (Halda Therapeutics OpCo, Inc., priority 2022, published 2026)
